Measured values: ChEMBL document CHEMBL5260804 (ACS Med Chem Lett, 2017)

What was measured:
[1] = biological target: Matrix protein 2 (Influenza A virus) (UniProt P06821); test: Inhibition of full length influenza A virus A/Udorn/72 (H3N2) M2 expressed in Xenopus laevis oocytes assessed as inhibition of channel current at 100 uM measured after 5 mins by two-electrode voltage clamp assay relative to control; format: cell-based; conditions: Oocyte
[2] = biological target: Matrix protein 2 (Influenza A virus) (UniProt P06821); test: Binding affinity to C-terminal amidated influenza A virus A/Udorn/72 (H3N2) M2 transmembrane domain (22 to 46 residues) in DPC micelles at pH 8 assessed as change in entropy by ITC analysis
[3] = biological target: Matrix protein 2 (Influenza A virus) (UniProt P06821); conditions: A/Udorn/72 (H3N2)
Description: Binding affinity to C-terminal amidated influenza A virus A/Udorn/72 (H3N2) M2 transmembrane domain (22 to 46 residues) in DPC micelles at pH 8 assessed as change in enthalpy by ITC analysis

[4] = biological target: Matrix protein 2 (Influenza A virus) (UniProt P06821); test: Inhibition of full length influenza A virus A/Udorn/72 (H3N2) M2 expressed in Xenopus laevis oocytes assessed as inhibition of channel current at 100 uM measured after 2 mins by two-electrode voltage clamp assay relative to control; format: cell-based; conditions: Oocyte
[5] = system: Influenza A virus; test: Antiviral activity against amantadine-sensitive influenza A virus A/Udorn/72 (H3N2) infected in MDCK cells assessed as inhibition of virus-induced cytopathic effect incubated for 48 hrs by crystal violet/neutral red staining based assay; format: functional, organism-based
[6] = biological target: Matrix protein 2 (Influenza A virus) (UniProt P06821); conditions: A/Udorn/72 (H3N2); remark: listed apart in the source
Description: Binding affinity to C-terminal amidated influenza A virus A/Udorn/72 (H3N2) M2 transmembrane domain (22 to 46 residues) in DPC micelles at pH 8 assessed as gibbs free energy change by ITC analysis

[7] = biological target: Matrix protein 2 (Influenza A virus, UniProt P06821)
Sequence of Matrix protein 2 (P06821 whole entry): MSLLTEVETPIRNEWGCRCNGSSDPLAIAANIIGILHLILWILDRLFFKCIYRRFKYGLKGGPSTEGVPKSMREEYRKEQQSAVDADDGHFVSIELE
Description: Binding affinity to C-terminal amidated influenza A virus A/Udorn/72 (H3N2) M2 transmembrane domain (22 to 46 residues) in DPC micelles at pH 8 assessed as dissociation constant by ITC analysis

Sequence of Matrix protein 2 (Influenza A virus) (P06821 whole entry, the tested form may be a part): as the sequence (P06821 whole entry) above

SMILES	inhibition [1] [%]	-TdeltaS [2] [kcal/mol]	deltaH [3] [kcal/mol]	inhibition [4] [%]	IC50 [5] [nM]	deltaG [6] [kcal/mol]	Kd [7] [nM]
CC(N)C12CC3CC(CC(C3)C1)C2 (racemic) [RIMANTADINE]	96	-1.04	-7.6	96	50	–	–
C[C@@H](N)C12CC3CC(CC(C3)C1)C2	95	-1.42	-7.54	93	50	-8.97	–
CC(C)(N)C12CC3CC(CC(C3)C1)C2	96	-5.12	-4.19	90	40	-9.3	130
NC12CC3CC(CC(C3)C1)C2 [AMANTADINE]	95	-1.11	-6.66	–	330	-7.77	–
C[C@H](N)C12CC3CC(CC(C3)C1)C2	96	-1.15	-7.73	95	60	–	–
